According to patent publication US20080318876A1, “Use of Ginsenosides in the Treatment of Aids” (priority 2004, published 2008):
Read-outs that look alike come from different tables or passages of the source.

Experiments:
HIV-1 in Hela-CD4 cells = experiment: Combination medication JHR and AZT (MAGI test); type: cell-based
Protocol: Method: For the experiment, the MAGI test method was adopted (the same as above).
(A) Single-agent medication: five doses of AZT were used in amount of from 1 μM to 3.9 nM, and were designated AZT1-5, five doses of JHR were designated in amount of 400 ug/ml to 1.56 ug/ml, and IC50 were obtained respectively.
Half dosage of AZT was combined with half dosage of JHR-1 as one sample. AZT1 was combined respectively with any of JHR1-JHR5; Each of AZT2, AZT3, AZT4, AZT5 was respectively combined with any of […]. So a total of 25 concentration combinations could be used. Each concentration was set in duplicate wells (2 wells). Additional group was taken as cell and virus controls.
(C) Comparing each drug combination with the virus group to have the inhibition rate. The inhibition rate of each drug combination was compared with the sole AZT IC50 to obtain the difference of functions each other.

[1] = system: HIV-1 (single-life-cycle reporter HIV) in Hela-CD4-LTR-gal cells; experiment: Inhibition of HIV-1 replication in HeLa-CD4 cells (MAGI test); type: cell-based; conditions: for inhibition at 200 µg/mL: Human immunodeficiency virus 1, MAGI, read-out: Inhibition Rate (0.2 mg/ml)
Protocol: Three types of cells (such as MT4, Hela-CD4, PBMC) were infected respectively with HIV-1 virus for observation of the inhibiting effects of ginseng composition (JHR) prepared in Example 1 upon the HIV-1 replication.
Virus: Single-life-cycle reporter HIV was acquired by transfection with HIV plasmids.
Method: Hela-CD4-LTR-gal cell was inoculated into a 24-well plate at 0.4×10^5/well and cultured for 24 hours and let the cells absorb and adhere to the wall. On the second day, the supernatants were sucked away from the wells and 100 μl drug (drug control) or drug (drug solutions with different concentrations) and HIV-1 or culture medium (Mock) were added. After 2 hours, 200 μl of identical drug solutions or culture medium was added into each well for culturing at 37° C. in a CO2 incubator for 48 hours and detecting by the following method.
Fixation: The supernatants were sucked away from each well and adding the fixative solution (1 ml), and then by staining with K4[Fe(CN)6].3H2O, K3[Fe(CN)6] and X-gel.
Counting: For the blue cell counts (BCC) within each well, the following formula is used to calculate the IR and then IC50.
The same method as that in example 1 is applied, except that the drug added into the wells is Ginsenoside monomer, and the concentration thereof is listed in table 3.

gp120 protein = target: T1, gp120 protein (Human immunodeficiency virus type 1 group M subtype B, UniProt P03375); type: binding; conditions: BIACORE chip, genetically recombined gp120
T1 construct: The genetically recombined gp41, gp120 were placed on the chip of BIACORE analyzer

[2] = system: HIV single life cycle model; experiment: Viral life cycle stage targeted: dosing at different times post-infection (single life cycle model, MAGI or Luciferase); type: cell-based
gp41 protein = gp41 protein (Human immunodeficiency virus type 1 group M subtype B, UniProt P03375); experiment: BIACORE binding to gp41 protein; conditions: BIACORE chip, genetically recombined gp41; conjugation to gp41 stronger than to gp120
Description: The genetically recombined gp41, gp120 were placed on the chip of BIACORE analyzer, respectively, after adding a certain concentration of Rb3 in sufficient amount, the instrument could detect whether or not there was a binding.

In the case of `Cc1cn([C@H]2C[C@H](N=[N+]=[N-])[C@@H](CO)O2)c(=O)[nH]c1=O` [AZT], the EC50 (HIV-1 in Hela-CD4 cells; AZT alone or AZT combined with JHR dose 1-5, MAGI test, read-out: ED50 (the source's name)) is reported as 46 nM, the IC50 (HIV-1 in Hela-CD4 cells; AZT alone, read-out: IC50 of AZT alone) is reported as 46 nM and the IC50 (HIV-1 in Hela-CD4 cells; combined with the first dose of JHR, read-out: IC50 of AZT after combining with the first dose of JHR) is reported as 5.8 nM.

Compound `CC(C)=CCC[C@](C)(OC1OC(COC2OC(CO)C(O)C(O)C2O)C(O)C(O)C1O)[C@H]1CC[C@]2(C)[C@@H]1[C@H](O)C[C@@H]1[C@@]3(C)CC[C@H](OC4OC(CO)C(O)C(O)C4OC4OC(CO)C(O)C(O)C4O)C(C)(C)[C@@H]3CC[C@]12C` (stereo partly shown) [Rb1] has an inhibition at 200 µg/mL [1] of 41.9%.

`CC(C)=CCC[C@](C)(OC1OC(COC2OCC(O)C(O)C2O)C(O)C(O)C1O)[C@H]1CC[C@]2(C)[C@@H]1[C@H](O)C[C@@H]1[C@@]3(C)CC[C@H](OC4OC(CO)C(O)C(O)C4OC4OC(CO)C(O)C(O)C4O)C(C)(C)[C@@H]3CC[C@]12C` (stereo partly shown) [Rb2] showed an inhibition at 200 µg/mL [1] of 42.9%.

With `CC(C)=CCC[C@](C)(O[C@@H]1O[C@H](CO[C@@H]2OC[C@@H](O)[C@H](O)[C@H]2O)[C@@H](O)[C@H](O)[C@H]1O)[C@H]1CC[C@]2(C)[C@@H]1[C@H](O)C[C@@H]1[C@@]3(C)CC[C@H](O[C@@H]4O[C@H](CO)[C@@H](O)[C@H](O)[C@H]4O[C@@H]4O[C@H](CO)[C@@H](O)[C@H](O)[C@H]4O)C(C)(C)[C@@H]3CC[C@]12C` [Rb3] the “binding to gp120 protein” value (gp120 protein) was “can bind”, the “Inhibition rate (%)” value ([2]; dosing 2 hours post-infection) was 83.98% and the “Inhibition rate (%)” value ([2]; dosing 10 hours post-infection) was 0%. For the same compound, the “Inhibition rate (%)” value ([2]; dosing 29 hours post-infection) was 0%, the “binding to gp41 protein” value (gp41 protein) was “can bind” and the “Inhibition Rate (0.2 mg/ml)” value ([1]; Hela-CD4 cell strain, 0.2 mg/ml) was 70.68%. The “Inhibition Rate (0.4 mg/ml)” value ([1]; Hela-CD4 cell strain, 0.4 mg/ml) was 97.9%.

`CC(C)=CCC[C@](C)(OC1OC(COC2OC(CO)C(O)C2O)C(O)C(O)C1O)[C@H]1CC[C@]2(C)[C@@H]1[C@H](O)C[C@@H]1[C@@]3(C)CC[C@H](OC4OC(CO)C(O)C(O)C4OC4OC(CO)C(O)C(O)C4O)C(C)(C)[C@@H]3CC[C@]12C` (stereo partly shown) [Rc] was tested, and the inhibition at 200 µg/mL [1] was 60.7%.
